# Reference: patent US8192962B2, “Processes for detecting toxic substances” (Daikin Industries, Ltd., priority 2001, dated 2012)
# Test system: Energy system protein genes
# Assay: DNA chip mRNA expression in yeast, energy system protein genes (Table 4)
# Type: cell-based, Saccharomyces cerevisiae S288C
# Procedure, shortened: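 Expression change after 2 h toxicant exposure (growth-inhibiting, sub-lethal) of log-phase S. cerevisiae S288C at 25° C. Oligo-dT-purified mRNA was labeled with Cy3-dUTP or Cy5-dUTP and hybridized >12 h at 65° C. to a genome-wide chip; ratio of scanned fluorescence to control.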
compound,measurement,setting,value
"Oc1cc(Cl)c(Cl)cc1Cl [(6), 2,4,5-trichlorophenol]",The level of expressed mRNA in the presence of chemical substance/The level of expressed mRNA in the absence of chemical substance,yeast gene YAL060W,4.2
same,The level of expressed mRNA in the presence of chemical substance/The level of expressed mRNA in the absence of chemical substance,"yeast gene YBL058W, cells incubated two hours with the chemical substance",0.9
same,The level of expressed mRNA in the presence of chemical substance/The level of expressed mRNA in the absence of chemical substance,"yeast gene YBL099W, cells incubated two hours with the chemical substance",0.9
same,The level of expressed mRNA in the presence of chemical substance/The level of expressed mRNA in the absence of chemical substance,"yeast gene YBR001C, cells incubated two hours with the chemical substance",1.1
same,The level of expressed mRNA in the presence of chemical substance/The level of expressed mRNA in the absence of chemical substance,yeast gene YBR126C,2.9
same,The level of expressed mRNA in the presence of chemical substance/The level of expressed mRNA in the absence of chemical substance,"yeast gene YBR185C, cells incubated two hours with the chemical substance",1.2
same,The level of expressed mRNA in the presence of chemical substance/The level of expressed mRNA in the absence of chemical substance,"yeast gene YBR221C, cells incubated two hours with the chemical substance",1.7
same,The level of expressed mRNA in the presence of chemical substance/The level of expressed mRNA in the absence of chemical substance,yeast gene YCL040W,3.5
same,The level of expressed mRNA in the presence of chemical substance/The level of expressed mRNA in the absence of chemical substance,yeast gene YCR012W,2.5
same,The level of expressed mRNA in the presence of chemical substance/The level of expressed mRNA in the absence of chemical substance,"yeast gene YCR046C, cells incubated two hours with the chemical substance",0.8
same,The level of expressed mRNA in the presence of chemical substance/The level of expressed mRNA in the absence of chemical substance,"yeast gene YCR105W, cells incubated two hours with the chemical substance",1.0
same,The level of expressed mRNA in the presence of chemical substance/The level of expressed mRNA in the absence of chemical substance,yeast gene YDL021W,6.5
same,The level of expressed mRNA in the presence of chemical substance/The level of expressed mRNA in the absence of chemical substance,"yeast gene YDL067C, cells incubated two hours with the chemical substance",0.9
same,The level of expressed mRNA in the presence of chemical substance/The level of expressed mRNA in the absence of chemical substance,"yeast gene YDL078C, cells incubated two hours with the chemical substance",1.1
same,The level of expressed mRNA in the presence of chemical substance/The level of expressed mRNA in the absence of chemical substance,"yeast gene YDL107W, cells incubated two hours with the chemical substance",1.3
same,The level of expressed mRNA in the presence of chemical substance/The level of expressed mRNA in the absence of chemical substance,yeast gene YDL174C,1.7
same,The level of expressed mRNA in the presence of chemical substance/The level of expressed mRNA in the absence of chemical substance,"yeast gene YDL181W, cells incubated two hours with the chemical substance",1.2
same,The level of expressed mRNA in the presence of chemical substance/The level of expressed mRNA in the absence of chemical substance,yeast gene YDR001C,2.2
same,The level of expressed mRNA in the presence of chemical substance/The level of expressed mRNA in the absence of chemical substance,"yeast gene YDR050C, cells incubated two hours with the chemical substance",1.7
same,The level of expressed mRNA in the presence of chemical substance/The level of expressed mRNA in the absence of chemical substance,"yeast gene YDR079W, cells incubated two hours with the chemical substance",1.7
same,The level of expressed mRNA in the presence of chemical substance/The level of expressed mRNA in the absence of chemical substance,"yeast gene YDR178W, cells incubated two hours with the chemical substance",2.1
same,The level of expressed mRNA in the presence of chemical substance/The level of expressed mRNA in the absence of chemical substance,yeast gene YDR231C,2.2
same,The level of expressed mRNA in the presence of chemical substance/The level of expressed mRNA in the absence of chemical substance,"yeast gene YDR298C, cells incubated two hours with the chemical substance",1.2
same,The level of expressed mRNA in the presence of chemical substance/The level of expressed mRNA in the absence of chemical substance,"yeast gene YDR377W, cells incubated two hours with the chemical substance",1.3
same,The level of expressed mRNA in the presence of chemical substance/The level of expressed mRNA in the absence of chemical substance,"yeast gene YDR529C, cells incubated two hours with the chemical substance",0.8
same,The level of expressed mRNA in the presence of chemical substance/The level of expressed mRNA in the absence of chemical substance,"yeast gene YEL024W, cells incubated two hours with the chemical substance",1.1
same,The level of expressed mRNA in the presence of chemical substance/The level of expressed mRNA in the absence of chemical substance,"yeast gene YEL039C, cells incubated two hours with the chemical substance",1.5
same,The level of expressed mRNA in the presence of chemical substance/The level of expressed mRNA in the absence of chemical substance,yeast gene YER178W,2.5
same,The level of expressed mRNA in the presence of chemical substance/The level of expressed mRNA in the absence of chemical substance,yeast gene YFL057C,1.2
same,The level of expressed mRNA in the presence of chemical substance/The level of expressed mRNA in the absence of chemical substance,yeast gene YFR015C,3.0
same,The level of expressed mRNA in the presence of chemical substance/The level of expressed mRNA in the absence of chemical substance,yeast gene YFR053C,3.2
same,The level of expressed mRNA in the presence of chemical substance/The level of expressed mRNA in the absence of chemical substance,"yeast gene YGL018C, cells incubated two hours with the chemical substance",0.4
same,The level of expressed mRNA in the presence of chemical substance/The level of expressed mRNA in the absence of chemical substance,yeast gene YGL062W,1.0
same,The level of expressed mRNA in the presence of chemical substance/The level of expressed mRNA in the absence of chemical substance,"yeast gene YGL187C, cells incubated two hours with the chemical substance",1.1
same,The level of expressed mRNA in the presence of chemical substance/The level of expressed mRNA in the absence of chemical substance,"yeast gene YGL191W, cells incubated two hours with the chemical substance",1.6
same,The level of expressed mRNA in the presence of chemical substance/The level of expressed mRNA in the absence of chemical substance,"yeast gene YGL205W, cells incubated two hours with the chemical substance",1.6
same,The level of expressed mRNA in the presence of chemical substance/The level of expressed mRNA in the absence of chemical substance,"yeast gene YGL256W, cells incubated two hours with the chemical substance",0.7
same,The level of expressed mRNA in the presence of chemical substance/The level of expressed mRNA in the absence of chemical substance,yeast gene YGR008C,2.9
same,The level of expressed mRNA in the presence of chemical substance/The level of expressed mRNA in the absence of chemical substance,yeast gene YGR043C,16.3
same,The level of expressed mRNA in the presence of chemical substance/The level of expressed mRNA in the absence of chemical substance,"yeast gene YGR062C, cells incubated two hours with the chemical substance, 25° C., YPD medium",0.9
same,The level of expressed mRNA in the presence of chemical substance/The level of expressed mRNA in the absence of chemical substance,"yeast gene YGR087C, cells incubated two hours with the chemical substance",1.1
same,The level of expressed mRNA in the presence of chemical substance/The level of expressed mRNA in the absence of chemical substance,"yeast gene YGR174C, cells incubated two hours with the chemical substance",1.4
same,The level of expressed mRNA in the presence of chemical substance/The level of expressed mRNA in the absence of chemical substance,yeast gene YGR192C,1.7
same,The level of expressed mRNA in the presence of chemical substance/The level of expressed mRNA in the absence of chemical substance,yeast gene YGR207C,2.8
same,The level of expressed mRNA in the presence of chemical substance/The level of expressed mRNA in the absence of chemical substance,yeast gene YGR244C,2.6
same,The level of expressed mRNA in the presence of chemical substance/The level of expressed mRNA in the absence of chemical substance,yeast gene YGR254W,1.9
same,The level of expressed mRNA in the presence of chemical substance/The level of expressed mRNA in the absence of chemical substance,yeast gene YGR256W,6.2
same,The level of expressed mRNA in the presence of chemical substance/The level of expressed mRNA in the absence of chemical substance,yeast gene YHL008C,0.8
same,The level of expressed mRNA in the presence of chemical substance/The level of expressed mRNA in the absence of chemical substance,yeast gene YHR174W,1.5
same,The level of expressed mRNA in the presence of chemical substance/The level of expressed mRNA in the absence of chemical substance,yeast gene YHR179W,3.7
same,The level of expressed mRNA in the presence of chemical substance/The level of expressed mRNA in the absence of chemical substance,yeast gene YIL045W,1.7
same,The level of expressed mRNA in the presence of chemical substance/The level of expressed mRNA in the absence of chemical substance,yeast gene YIL111W,2.6
same,The level of expressed mRNA in the presence of chemical substance/The level of expressed mRNA in the absence of chemical substance,yeast gene YIL160C,1.6
same,The level of expressed mRNA in the presence of chemical substance/The level of expressed mRNA in the absence of chemical substance,"yeast gene YIR031C, cells incubated two hours with the chemical substance",1.7
same,The level of expressed mRNA in the presence of chemical substance/The level of expressed mRNA in the absence of chemical substance,yeast gene YJL052W,2.4
same,The level of expressed mRNA in the presence of chemical substance/The level of expressed mRNA in the absence of chemical substance,"yeast gene YJL121C, cells incubated two hours with the chemical substance",1.1
same,The level of expressed mRNA in the presence of chemical substance/The level of expressed mRNA in the absence of chemical substance,"yeast gene YJL166W, cells incubated two hours with the chemical substance",0.7
same,The level of expressed mRNA in the presence of chemical substance/The level of expressed mRNA in the absence of chemical substance,yeast gene YJR009C,1.6
